The assay addresses SIRT6 enzyme (Homo sapiens, UniProt Q8N6T7). The assay is described as follows: Measurement of deacetylation activity (SIRT6, AlphaLISA, H3K9(Ac) peptide). The format is biochemical. Conditions: SIRT6 25 ng/mL, H3K9(Ac) biotin peptide 2 nM, NAD 10 μM, room temperature 30 minutes, duplicate. The procedure, abridged:
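Activation read as EC150, the concentration giving 150% activity relative to enzyme/no-enzyme DMSO controls, via variable-slope fit. Deacetylation of 2 nM biotinylated H3K9(Ac) peptide with 10 μM NAD+ by 25 ng/mL SIRT6 ran 30 min at room temperature, pH 8.0, then AlphaLISA detection of unmodified H3K9.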
In general terms: Alpha assays give light when donor and acceptor beads are brought close together.
Sequence of SIRT6 enzyme (Q8N6T7 whole entry, species assumed): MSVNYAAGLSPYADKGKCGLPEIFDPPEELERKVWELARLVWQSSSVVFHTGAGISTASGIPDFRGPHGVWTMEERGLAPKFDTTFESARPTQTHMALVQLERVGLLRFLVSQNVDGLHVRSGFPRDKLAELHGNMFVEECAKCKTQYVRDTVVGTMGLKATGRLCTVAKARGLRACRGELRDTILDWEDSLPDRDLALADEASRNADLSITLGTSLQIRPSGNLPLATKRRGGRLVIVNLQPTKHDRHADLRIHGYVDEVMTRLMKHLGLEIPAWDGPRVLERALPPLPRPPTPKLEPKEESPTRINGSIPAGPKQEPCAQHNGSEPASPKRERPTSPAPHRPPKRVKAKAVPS
With `CNC(=O)Nc1nc2c(s1)C1COCC(C2)N1c1cc(-c2ccc(F)cc2)on1` (centres unmarked) [Example 16, N-{10-[5-(4-fluorophenyl)-1,2-oxazol-3-yl]-4,7,8,9-tetrahydro-5H-4,8-epiminooxocino[5,4-d][1,3]thiazol-2-yl}-N′-methylurea], the “EC150 (the concentration of the compound showing a relative enzyme activity of 150%)” value is recorded as 4.2 μm.

For the molecule `CNC(=O)Nc1nc2c(s1)C1COCC(C2)N1c1nc([C@H]2CC[C@@H](C(F)(F)F)CC2)no1` (some centres unmarked) [Example 6, N-methyl-N′-(10-{3-[(1s,4s)-4-(trifluoromethyl)cyclohexyl]-1,2,4-oxadiazol-5-yl}-4,7,8,9-tetrahydro-5H-4,8-epiminooxocino[5,4-d][1,3]thiazol-2-yl)urea], the “EC150 (the concentration of the compound showing a relative enzyme activity of 150%)” value is listed as 4.5 μm.

For the molecule `CCOc1cccc(-c2cnc(N3[C@@H]4COC[C@H]3c3sc(NC(=O)N[C@H](C)CO)nc3C4)o2)n1` [Example 68, N-{(4S,8S)-10-[5-(6-ethoxypyridin-2-yl)-1,3-oxazol-2-yl]-4,7,8,9-tetrahydro-5H-4,8-epiminooxocino[5,4-d][1,3]thiazol-2-yl}-N′-[(2R)-1-hydroxypropan-2-yl]urea], the “EC150 (the concentration of the compound showing a relative enzyme activity of 150%)” value was determined as 1 μm.

For the molecule `CNC(=O)Nc1nc2c(s1)[C@@H]1COC[C@H](C2)N1c1nnc(-c2cccc(OC(C)C)c2)o1` [Example 122, N-methyl-N′-[(4S,8S)-10-(5-{3-[(propan-2-yl)oxy]phenyl}-1,3,4-oxadiazol-2-yl)-4,7,8,9-tetrahydro-5H-4,8-epiminooxocino[5,4-d][1,3]thiazol-2-yl]urea], the “EC150 (the concentration of the compound showing a relative enzyme activity of 150%)” value was found to be 1.5 μm.

Regarding `CC(C)(CO)NC(=O)Nc1nc2c(s1)[C@@H]1COC[C@H](C2)N1c1nc(-c2ccc(F)cc2)no1` [Example 90, N-{(4S,8S)-10-[3-(4-fluorophenyl)-1,2,4-oxadiazol-5-yl]-4,7,8,9-tetrahydro-5H-4,8-epiminooxocino[5,4-d][1,3]thiazol-2-yl}-N′-(1-hydroxy-2-methylpropan-2-yl)urea], the “EC150 (the concentration of the compound showing a relative enzyme activity of 150%)” value was determined as 2.5 μm.

For `C[C@H](CO)NC(=O)Nc1nc2c(s1)[C@@H]1COC[C@H](C2)N1c1cc(-c2cccc(C(F)F)c2)on1` [Example 156, N-[(4S,8S)-10-{5-[3-(difluoromethyl)phenyl]-1,2-oxazol-3-yl}-4,7,8,9-tetrahydro-5H-4,8-epiminooxocino[5,4-d][1,3]thiazol-2-yl]-N′-[(2R)-1-hydroxypropan-2-yl]urea], the “EC150 (the concentration of the compound showing a relative enzyme activity of 150%)” value was 1 μm.

Take `C[C@H](CO)NC(=O)Nc1nc2c(s1)[C@@H]1COC[C@H](C2)N1c1cc(-c2ccc(F)cc2)on1` [Example 154, N-{(4S,8S)-10-[5-(4-fluorophenyl)-1,2-oxazol-3-yl]-4,7,8,9-tetrahydro-5H-4,8-epiminooxocino[5,4-d][1,3]thiazol-2-yl}-N′-[(2R)-1-hydroxypropan-2-yl]urea]: the “EC150 (the concentration of the compound showing a relative enzyme activity of 150%)” value worked out at 0.82 μm.

For `O=C(Nc1nc2c(s1)[C@@H]1COC[C@H](C2)N1c1cc(-c2ccc(F)cc2)on1)N[C@H]1C[C@@H](O)C1` [Example 158, N-{(4S,8S)-10-[5-(4-fluorophenyl)-1,2-oxazol-3-yl]-4,7,8,9-tetrahydro-5H-4,8-epiminooxocino[5,4-d][1,3]thiazol-2-yl}-N′-[(1s,3R)-3-hydroxycyclobutyl]urea], the “EC150 (the concentration of the compound showing a relative enzyme activity of 150%)” value is 1.1 μm.

For `O=C(Nc1nc2c(s1)CN(c1nc(C3CCC(F)(F)CC3)no1)CC2)N[C@@H]1CCC[C@H]1O` [Example 25, N-{5-[3-(4,4-difluorocyclohexyl)-1,2,4-oxadiazol-5-yl]-4,5,6,7-tetrahydro[1,3]thiazolo[5,4-c]pyridin-2-yl}-N′-[(1R,2R)-2-hydroxycyclopentyl]urea], the “EC150 (the concentration of the compound showing a relative enzyme activity of 150%)” value is 0.81 μm.

Regarding `CNC(=O)Nc1nc2c(s1)C1CN(C(C)=O)CC(C2)N1c1nc(-c2ccc(F)cc2)no1` (centres unmarked) [Example 19, N-{6-acetyl-10-[3-(4-fluorophenyl)-1,2,4-oxadiazol-5-yl]-4,5,6,7,8,9-hexahydro-4,8-epimino[1,3]thiazolo[5,4-d]azocin-2-yl}-N′-methylurea], the “EC150 (the concentration of the compound showing a relative enzyme activity of 150%)” value is reported as 0.60 μm.

As for `COc1cccc(-c2cnc(N3[C@@H]4COC[C@H]3c3sc(NC(=O)NC5CCOCC5)nc3C4)o2)n1` [Example 186, N-{(4S,8S)-10-[5-(6-methoxypyridin-2-yl)-1,3-oxazol-2-yl]-4,7,8,9-tetrahydro-5H-4,8-epiminooxocino[5,4-d][1,3]thiazol-2-yl}-N′-oxan-4-ylurea], the “EC150 (the concentration of the compound showing a relative enzyme activity of 150%)” value is recorded as 0.48 μm.

Regarding `CC(C)NC(=O)Nc1nc2c(s1)[C@@H]1COC[C@H](C2)N1c1nnc(-c2cccc(C(=O)C3CC3)c2)o1` [Example 117, N-[(4S,8S)-10-{5-[3-(cyclopropanecarbonyl)phenyl]-1,3,4-oxadiazol-2-yl}-4,7,8,9-tetrahydro-5H-4,8-epiminooxocino[5,4-d][1,3]thiazol-2-yl]-N′-propan-2-ylurea], the “EC150 (the concentration of the compound showing a relative enzyme activity of 150%)” value was determined as 1 μm.

For `O=C(NCc1ccc[nH]c1=O)Nc1nc2c(s1)CN(c1nc(C3CCC(F)(F)CC3)no1)CC2` [Example 103, N-{5-[3-(4,4-difluorocyclohexyl)-1,2,4-oxadiazol-5-yl]-4,5,6,7-tetrahydro[1,3]thiazolo[5,4-c]pyridin-2-yl}-N′-[(2-oxo-1,2-dihydropyridin-3-yl)methyl]urea], the “EC150 (the concentration of the compound showing a relative enzyme activity of 150%)” value stood at 1.8 μm.

As for `CNC(=O)Nc1nc2c(s1)C1CN(C(=O)OC)CC(C2)N1c1nc(C2CCC(F)(F)CC2)no1` (centres unmarked) [Example 132, Methyl 10-[3-(4,4-difluorocyclohexyl)-1,2,4-oxadiazol-5-yl]-2-[(methylcarbamoyl)amino]-4,7,8,9-tetrahydro-4,8-epimino[1,3]thiazolo[5,4-d]azocine-6(5H)-carboxylate], the “EC150 (the concentration of the compound showing a relative enzyme activity of 150%)” value is 0.39 μm.

On to `CNC(=O)Nc1nc2c(s1)[C@H]1CN(CCO)C[C@@H](C2)N1c1nc(-c2ccc(F)cc2)no1` [Example 127, N-[(4R,8R)-10-[3-(4-fluorophenyl)-1,2,4-oxadiazol-5-yl]-6-(2-hydroxyethyl)-4,5,6,7,8,9-hexahydro-4,8-epimino[1,3]thiazolo[5,4-d]azocin-2-yl]-N′-methylurea], for which the “EC150 (the concentration of the compound showing a relative enzyme activity of 150%)” value is reported as 2.1 μm.

Regarding `COc1ccc2oc(N3[C@@H]4COC[C@H]3c3sc(NC(=O)N[C@H]5CCOC5)nc3C4)nc2c1` [Example 151, N-[(4S,8S)-10-(5-methoxy-1,3-benzoxazol-2-yl)-4,7,8,9-tetrahydro-5H-4,8-epiminooxocino[5,4-d][1,3]thiazol-2-yl]-N′-[(3S)-oxolan-3-yl]urea], the “EC150 (the concentration of the compound showing a relative enzyme activity of 150%)” value was 0.78 μm.

Take `CNC(=O)Nc1nc2c(s1)C1CN(C(C)=O)CC(C2)N1c1ncc(-c2cccc(OC(F)F)n2)o1` (centres unmarked) [Example 128, N-(6-acetyl-10-{5-[6-(difluoromethoxy)pyridin-2-yl]-1,3-oxazol-2-yl}-4,5,6,7,8,9-hexahydro-4,8-epimino[1,3]thiazolo[5,4-d]azocin-2-yl)-N′-methylurea]: the “EC150 (the concentration of the compound showing a relative enzyme activity of 150%)” value stood at 0.43 μm.

Take `C[C@H](O)CNC(=O)Nc1nc2c(s1)[C@@H]1COC[C@H](C2)N1c1ncc(-c2cccc(OC(F)F)n2)o1` [Example 174, N-[(4S,8S)-10-{5-[6-(difluoromethoxy)pyridin-2-yl]-1,3-oxazol-2-yl}-4,7,8,9-tetrahydro-5H-4,8-epiminooxocino[5,4-d][1,3]thiazol-2-yl]-N′-[(2S)-2-hydroxypropyl]urea]: the “EC150 (the concentration of the compound showing a relative enzyme activity of 150%)” value is reported as 0.74 μm.

In the case of `COc1ccc2oc(N3[C@@H]4COC[C@H]3c3sc(NC(=O)N[C@@H]5CCOC5)nc3C4)nc2c1` [Example 47, N-[(4S,8S)-10-(5-methoxy-1,3-benzoxazol-2-yl)-4,7,8,9-tetrahydro-5H-4,8-epiminooxocino[5,4-d][1,3]thiazol-2-yl]-N′-[(3R)-oxolan-3-yl]urea], the “EC150 (the concentration of the compound showing a relative enzyme activity of 150%)” value turned out to be 0.83 μm.

Consider `COc1cccc(-c2cc(N3[C@@H]4COC[C@H]3c3sc(NC(=O)N[C@H]5CCOC5)nc3C4)no2)n1` [Example 162, N-{(4S,8S)-10-[5-(6-methoxypyridin-2-yl)-1,2-oxazol-3-yl]-4,7,8,9-tetrahydro-5H-4,8-epiminooxocino[5,4-d][1,3]thiazol-2-yl}-N′-[(3S)-oxolan-3-yl]urea], for which the “EC150 (the concentration of the compound showing a relative enzyme activity of 150%)” value amounted to 3.3 μm.

On to `O=C(Nc1nc2c(s1)CN(c1nc(C3CCC(F)(F)C3)no1)CC2)N[C@H]1C[C@H](O)C1` (some centres unmarked) [Example 35, N-{5-[3-(3,3-difluorocyclopentyl)-1,2,4-oxadiazol-5-yl]-4,5,6,7-tetrahydro[1,3]thiazolo[5,4-c]pyridin-2-yl}-N′-[(1r,3r)-3-hydroxycyclobutyl]urea], for which the “EC150 (the concentration of the compound showing a relative enzyme activity of 150%)” value was 1 μm.

Take `CNC(=O)Nc1nc2c(s1)C1COCC(C2)N1c1nnc(-c2cccc(C(=O)C3CCC3)c2)o1` (centres unmarked) [Example 113, N-(10-{5-[3-(cyclobutanecarbonyl)phenyl]-1,3,4-oxadiazol-2-yl}-4,7,8,9-tetrahydro-5H-4,8-epiminooxocino[5,4-d][1,3]thiazol-2-yl)-N′-methylurea]: the “EC150 (the concentration of the compound showing a relative enzyme activity of 150%)” value was determined as 2.6 μm.

As for `CC(C)CNC(=O)Nc1nc2c(s1)[C@@H]1COC[C@H](C2)N1c1nc2cc(S(C)(=O)=O)ccc2o1` [Example 43, N-{(4S,8S)-10-[5-(methanesulfonyl)-1,3-benzoxazol-2-yl]-4,7,8,9-tetrahydro-5H-4,8-epiminooxocino[5,4-d][1,3]thiazol-2-yl}-N′-(2-methylpropyl)urea], the “EC150 (the concentration of the compound showing a relative enzyme activity of 150%)” value was determined as 1.5 μm.

The record behind these values is patent US11981686B2, “Urea compound having substituent” (DAIICHI SANKYO COMPANY, LIMITED, priority 2019, dated 2024).
